Assay results taken from US10786690B2, “Amide derivatives of polycaffeoylquinic acids, process for producing same and uses thereof” (TEMISIS, priority 2016, dated 2020).

System: female Balb/c mice
Experiment: Imiquimod-induced psoriasis in Balb/c mice, PASI scoring
Format: in vivo, mouse
Protocol: The study is performed on 40 female Balb/c mice, weighing roughly 18-20 g and randomized by weight into 5 groups (n=8) as function of the treatments, under controlled temperature (24±2° C.) and humidity (50±20%) conditions and with a 12-hour reversed light cycle (light from 20:00 to 08:00) (food and water ad libitum).
The compounds to be tested are as follows: • Excipial® neutral ointment (control) • PAT1657 (octyl-isochlorogenamide A) incorporated at 1.33% or 2.67% by mass in Excipial® ointment • Aldara® cream containing 5% imiquimod, an inducer of psoriasis • Dermoval® cream containing 0.05% clobetasol propionate and used for topical treatment of psoriasis (reference product)
The treatment groups are distributed as follows: • Group 1: no induction of psoriasis but cutaneous application of neutral ointment from day 1 to day 10 and treatment with Excipial® neutral ointment from day 7 to day 10 (negative control) (EP/EP); • Group 2: induction of psoriasis by cutaneous application of Aldara® cream containing imiquimod from day 1 to day 10 and treatment with Excipial® neutral ointment from day 7 to day 10 (positive control) (ALD/EP); • Group 3: induction of psoriasis by cutaneous application of Aldara® cream containing imiquimod from day 1 to day 10 and treatment with neutral ointment containing 1.33% compound PAT1657 from day 7 to day 10 (ALD/PAT1657-1.33%); • Group 4: induction of psoriasis by cutaneous application of Aldara® cream containing imiquimod from day 1 to day 10 and treatment with neutral ointment containing 2.67% compound PAT1657 from day 7 to day 10 (ALD/PAT1657-2.67%); • Group 5: induction of psoriasis by cutaneous application of Aldara® cream containing imiquimod from day 1 to day 10 and treatment with Dermoval® cream from day 7 to day 10 (ALD/Dermoval®). Induction and Maintenance of Psoriasis
To perform the induction of psoriasis, it was necessary to remove the hair from the backs of the animals by shaving and plucking to have direct access to the skin tissue. Psoriasis was induced in all mice in groups 2 to 5 by daily cutaneous application for 10 days, from day 1 to day 10, of roughly 70 mg of Aldara® cream. The cream was applied to the shaved backs of the mice with a silk brush. For the mice in group 1, daily cutaneous application of Excipial® neutral ointment was carried out under the same conditions: roughly 70 mg was applied for 10 days, from day 1 to day 10, in the morning using a silk brush.
The ointments containing compound PAT1657 at the two doses to be tested, Excipial® neutral ointment and Dermoval® cream, were administered by cutaneous applications for 4 days, from day 7 to day 10, on the backs of the mice in the psoriasis induction region. For each application, roughly 100 mg of ointment or cream was applied with a silk brush, at least 4 hours after application of Aldara® cream or Excipial® neutral ointment for induction or not of psoriasis.
The psoriasis area and severity index (PASI) was calculated daily throughout the experiment from day 1 to day 11, based on the following three parameters: • Presence of erythema, i.e. skin redness, in the psoriasis induction region, scored as follows: 0=no or no further erythema; 1=mild erythema; 2=moderate erythema; 3=severe erythema; 4=very severe erythema. • Degree of induration, i.e. skin hardening and thickening, in the psoriasis induction region, scored as follows: 0=no or no further induration; 1=mild induration; 2=moderate induration; 3=severe induration; 4=very severe induration. • Degree of desquamation, i.e. presence of plaques on the skin surface, in the psoriasis induction region, scored as follows: 0=no or no further desquamation; 1=mild desquamation; 2=moderate desquamation; 3=severe desquamation; 4=very severe desquamation.
The psoriasis area and severity index is the sum of the scores for these three parameters. […]

[1] = day 8, 1.33% in ointment, vs ALD/EP group, p=0.001
[2] = day 10, 1.33% in ointment, vs ALD/EP group, p=0.001
[3] = day 10, 2.67% in ointment, vs ALD/EP group, p=0.001
[4] = day 11, 1.33% in ointment, vs ALD/EP group, p=0.001
[5] = day 11, 2.67% in ointment, vs ALD/EP group, p=0.001

What does the source list for `CCCCCCCCNC(=O)[C@]1(O)C[C@@H](OC(=O)/C=C/c2ccc(O)c(O)c2)[C@@H](O)[C@H](OC(=O)/C=C/c2ccc(O)c(O)c2)C1` [PAT1657, (2E,2′E)-((1R,2S,3R,5S)-2,5-dihydroxy-5-(octylcarbamoyl)cyclohexane-1,3-diyl) bis(3-(3,4-dihydroxyphenyl)acrylate)]?
mean psoriasis area and severity index (PASI) [1]: significantly lower; mean score for degree of induration in the psoriasis induction region [1]: significantly lower; mean score for presence of erythema in the psoriasis induction region [1]: significantly lower; mean score for degree of desquamation in the psoriasis induction region (day 8, 1.33% in ointment, vs ALD/EP group, p=0.007): significantly lower; mean psoriasis area and severity index (PASI) (day 8, 2.67% in ointment, vs ALD/EP group, p=0.001): significantly lower; mean score for degree of induration in the psoriasis induction region (day 8, 2.67% in ointment, vs ALD/EP group, p=0.004): significantly lower; mean score for degree of desquamation in the psoriasis induction region (day 8, 2.67% in ointment, vs ALD/EP group, p=0.006): significantly lower; mean score for presence of erythema in the psoriasis induction region (day 8, 2.67% in ointment, vs ALD/EP group, p=0.007): significantly lower; mean psoriasis area and severity index (PASI) (day 9, day 10 and day 11, 1.33% in ointment, vs ALD/EP group, p=0.001): significantly lower; mean psoriasis area and severity index (PASI) (day 9, day 10 and day 11, 2.67% in ointment, vs ALD/EP group, p=0.001): significantly lower; mean score for degree of induration in the psoriasis induction region (day 9, 1.33% in ointment, vs ALD/Dermoval group, p=0.015): significantly higher; mean score for degree of induration in the psoriasis induction region (day 9, 1.33% in ointment, vs ALD/EP group, p=0.001): significantly lower; mean score for presence of erythema in the psoriasis induction region (day 9, 1.33% in ointment, vs ALD/EP group, p=0.002): significantly lower; mean score for degree of induration in the psoriasis induction region (day 9, 2.67% in ointment, vs ALD/EP group, p=0.001): significantly lower; mean score for presence of erythema in the psoriasis induction region (day 9, 2.67% in ointment, vs ALD/EP group, p=0.002): significantly lower; mean score for degree of desquamation in the psoriasis induction region (day 9 and day 10, 1.33% in ointment, vs ALD/EP group, p=0.001): significantly lower; mean score for degree of desquamation in the psoriasis induction region (day 9 and day 10, 2.67% in ointment, vs ALD/EP group, p=0.001): significantly lower; mean score for degree of induration in the psoriasis induction region (day 10, 1.33% in ointment, vs ALD/Dermoval group, p=0.025): significantly higher; mean score for presence of erythema in the psoriasis induction region (day 10, 1.33% in ointment, vs ALD/Dermoval group, p=0.037): significantly lower; mean score for degree of induration in the psoriasis induction region [2]: significantly lower; mean score for presence of erythema in the psoriasis induction region [2]: significantly lower; mean score for degree of induration in the psoriasis induction region (day 10, 2.67% in ointment, vs ALD/Dermoval group, p=0.025): significantly higher; mean score for presence of erythema in the psoriasis induction region (day 10, 2.67% in ointment, vs ALD/Dermoval group, p=0.079): tendency to be significantly lower; mean score for degree of induration in the psoriasis induction region [3]: significantly lower; mean score for presence of erythema in the psoriasis induction region [3]: significantly lower; mean score for degree of desquamation in the psoriasis induction region (day 11, 1.33% in ointment, vs ALD/Dermoval group): significantly higher; mean score for presence of erythema in the psoriasis induction region (day 11, 1.33% in ointment, vs ALD/Dermoval group, p=0.001): significantly lower; mean score for degree of induration in the psoriasis induction region (day 11, 1.33% in ointment, vs ALD/Dermoval group, p=0.063): tendency to be significantly higher; mean score for degree of desquamation in the psoriasis induction region [4]: significantly lower; mean score for degree of induration in the psoriasis induction region [4]: significantly lower; mean score for presence of erythema in the psoriasis induction region [4]: significantly lower; mean score for presence of erythema in the psoriasis induction region (day 11, 2.67% in ointment, vs ALD/Dermoval group, p=0.014): significantly lower; mean score for degree of desquamation in the psoriasis induction region (day 11, 2.67% in ointment, vs ALD/Dermoval group, p=0.059): tended to be significantly higher; mean score for degree of desquamation in the psoriasis induction region [5]: significantly lower; mean score for degree of induration in the psoriasis induction region [5]: significantly lower; mean score for presence of erythema in the psoriasis induction region [5]: significantly lower
